Source: patent US20240246946A1, “MODULATORS OF TREX1” (Constellation Pharmaceuticals, Inc., priority 2021, published 2024)

Legend:
full length human TREX1 = target: T1, full length human TREX1 (Homo sapiens, UniProt Q9NSU2); assay: hTREX1 Biochemical Assay (fluorescence, dsDNA substrate degradation); conditions: biochemical, read-out: hTREX1 IC50
T1 construct: N-terminally His-Tev tagged full length human TREX1; made in house; host or cells: E. coli
T1 sequence (Q9NSU2 1-314): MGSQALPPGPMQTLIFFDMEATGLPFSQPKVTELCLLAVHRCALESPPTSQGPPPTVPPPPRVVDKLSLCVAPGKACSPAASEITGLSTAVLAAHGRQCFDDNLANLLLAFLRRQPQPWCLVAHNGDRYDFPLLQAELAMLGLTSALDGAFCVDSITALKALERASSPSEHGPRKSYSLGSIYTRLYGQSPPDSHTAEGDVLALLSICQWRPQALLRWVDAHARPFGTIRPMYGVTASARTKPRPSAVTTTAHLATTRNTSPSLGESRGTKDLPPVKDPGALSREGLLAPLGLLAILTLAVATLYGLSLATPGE
Summary of the method: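 Cleavage of 60 nM TEX615/quencher-labelled dsDNA in pH 7.4 Tris buffer with 5 mM MgCl2, 1.0% DMSO, run 18 hours at 25° C, EDTA-quenched; fluorescence read-out.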

full length mouse TREX1 = target: T2, full length mouse TREX1 (Mus musculus, UniProt Q91XB0); assay: mTREX1 Biochemical Assay (fluorescence, dsDNA substrate degradation); conditions: biochemical, read-out: mTREX1 IC50
T2 construct: N-terminally His-Tev tagged full length mouse TREX1; made in house; host or cells: E. coli
T2 sequence (Q91XB0 1-314): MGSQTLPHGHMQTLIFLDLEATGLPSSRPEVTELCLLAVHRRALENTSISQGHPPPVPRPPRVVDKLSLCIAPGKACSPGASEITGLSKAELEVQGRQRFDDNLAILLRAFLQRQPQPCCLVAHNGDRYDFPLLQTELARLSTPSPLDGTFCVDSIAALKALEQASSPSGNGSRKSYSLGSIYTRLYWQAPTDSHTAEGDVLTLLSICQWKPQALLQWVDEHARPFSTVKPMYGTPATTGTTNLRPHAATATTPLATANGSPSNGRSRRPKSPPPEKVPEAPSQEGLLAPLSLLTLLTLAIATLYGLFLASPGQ
Summary of the method: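 Reaction run 18 h at 25° C. with 60 nM TEX615/quencher-labelled dsDNA and 6 pM mouse TREX1 in Tris buffer (pH 7.4, 5 mM MgCl2, 1.0% DMSO), enzyme having sat 4 h with compound across 10 concentrations. EDTA quench; substrate degradation measured as fluorescence increase.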

| SMILES | IC50 (full length human TREX1) | IC50 (full length mouse TREX1) |
| --- | --- | --- |
| CC(c1nc(C(=O)Nc2cnoc2)c(O)c(=O)n1C)C(c1cnn(C)c1)c1ccccc1C#N (single isomer, unassigned) [Example 2 D1E1] | < 1 nM | 1 to 10 nM |
| CC(c1nc(C(=O)Nc2cnoc2)c(O)c(=O)n1C)C(c1ccccc1C#N)c1cn(C)nc1C#N (single isomer, unassigned) [Example 10 D1E1] | < 1 nM | < 1 nM |
| CCn1cc(C(c2ccccc2C#N)C(C)c2nc(C(=O)Nc3cnoc3)c(O)c(=O)n2C)cn1 (single isomer, unassigned) [Example 13 D1E1] | < 1 nM | < 1 nM |
| CC(c1nc(C(=O)Nc2cnoc2)c(O)c(=O)n1C)C(c1cnn(C)c1)c1cc(F)ccc1C#N (single isomer, unassigned) [Example 14 D1E2] | < 1 nM | 1 to 10 nM |
| CCn1cc(C(c2ccc(F)cc2C#N)C(C)c2nc(C(=O)Nc3cnoc3)c(O)c(=O)n2C)cn1 (single isomer, unassigned) [Example 16 D1E1] | < 1 nM | < 1 nM |
| CCn1cc(C(c2cc(F)ccc2C#N)C(C)c2nc(C(=O)Nc3cnoc3)c(O)c(=O)n2C)cn1 (single isomer, unassigned) [Example 17 D1E2] | < 1 nM | < 1 nM |
| CC(c1nc(C(=O)Nc2cnoc2)c(O)c(=O)n1C)C(c1cnn(CC(F)(F)F)c1)c1ccccc1C#N (single isomer, unassigned) [Example 22 D1E1] | < 1 nM | 1 to 10 nM |
| CC(c1nc(C(=O)Nc2cnoc2)c(O)c(=O)n1C)C(c1cnn(CC2CC2)c1)c1ccccc1C#N (single isomer, unassigned) [Example 23 D1E2] | < 1 nM | 1 to 10 nM |
| CC(c1nc(C(=O)Nc2cnoc2)c(O)c(=O)n1C)C(c1cnn(C)c1)c1cc(Cl)ccc1C#N (single isomer, unassigned) [Example 26 D1E2] | < 1 nM | 1 to 10 nM |
| CC(c1nc(C(=O)Nc2cnoc2)c(O)c(=O)n1C)C(c1cnn(C(F)F)c1)c1ccccc1C#N (single isomer, unassigned) [Example 38 D1E1] | < 1 nM | < 1 nM |
| Cc1cncc(C(c2ccccc2C#N)C(C)c2nc(C(=O)Nc3cnoc3)c(O)c(=O)n2C)n1 (single isomer, unassigned) [Example 53 D1E2] | < 1 nM | 1 to 10 nM |
| Cc1nn(C)cc1C(c1cc(F)ccc1C#N)C(C)c1nc(C(=O)Nc2cnoc2)c(O)c(=O)n1C (single isomer, unassigned) [Example 57 D1E2] | < 1 nM | 1 to 10 nM |
| CC(c1nc(C(=O)Nc2cnoc2)c(O)c(=O)n1C)C(c1cnn(C)c1)c1ccccc1Cl (single isomer, unassigned) [Example 77 D1E1] | < 1 nM | 1 to 10 nM |
| Cc1nn(C)c(C)c1C(c1ccccc1C#N)C(C)c1nc(C(=O)Nc2cnoc2)c(O)c(=O)n1C (single isomer, unassigned) [Example 78 D1E1] | < 1 nM | 1 to 10 nM |
| Cc1ncc(C(c2ccccc2C#N)C(C)c2nc(C(=O)Nc3cnoc3)c(O)c(=O)n2C)nc1C (single isomer, unassigned) [Example 81 D1E2] | < 1 nM | 1 to 10 nM |
| CC(c1nc(C(=O)Nc2cnoc2)c(O)c(=O)n1C)C(c1ccccc1C#N)c1cn(C)nc1F (single isomer, unassigned) [Example 91 D1E1] | < 1 nM | < 1 nM |
| CC(c1nc(C(=O)Nc2cnoc2)c(O)c(=O)n1C)C(c1cnn(C(C)C)c1)c1ccccc1C#N (single isomer, unassigned) [Example 105 D1E2] | < 1 nM | 1 to 10 nM |
| Cc1cc(C(c2cc(F)ccc2C#N)C(C)c2nc(C(=O)Nc3cnoc3)c(O)c(=O)n2C)n(C)n1 (single isomer, unassigned) [Example 111 D1E2] | < 1 nM | 1 to 10 nM |
| Cc1cnc(C(c2cc(F)ccc2C#N)C(C)c2nc(C(=O)Nc3cnoc3)c(O)c(=O)n2C)cn1 (single isomer, unassigned) [Example 115 D1E2] | < 1 nM | 1 to 10 nM |
| Cc1nc(C)c(C(c2ccccc2C#N)C(C)c2nc(C(=O)Nc3cnoc3)c(O)c(=O)n2C)nc1C (single isomer, unassigned) [Example 122 D1E1] | < 1 nM | < 1 nM |
| Cc1ncc(C(c2cc(F)ccc2C#N)C(C)c2nc(C(=O)Nc3cnoc3)c(O)c(=O)n2C)nc1C (single isomer, unassigned) [Example 124 D1E2] | < 1 nM | 1 to 10 nM |
| Cc1ncc(C(c2ccccc2Cl)C(C)c2nc(C(=O)Nc3cnoc3)c(O)c(=O)n2C)nc1C (single isomer, unassigned) [Example 125 D1E2] | < 1 nM | 1 to 10 nM |
| CCn1c(C(C)C(c2cnn(C)c2)c2ccccc2C#N)nc(C(=O)Nc2cnoc2)c(O)c1=O (single isomer, unassigned) [Example 149 D1E2] | < 1 nM | 1 to 10 nM |
| C[C@H](c1nc(C(=O)Nc2cnoc2)c(O)c(=O)n1C)[C@@H](c1cc(F)ccc1C#N)c1cn(C)nc1C#N [Example 59 D1E2] | < 1 nM | < 1 nM |
